Results: patent US12285440B2, “APOE4 impairs myelination via altered cholesterol biosynthesis and transport in oligodendroglia” (Massachusetts Institute of Technology, priority 2021, dated 2025)

Experiments:
Assay type in all cases: cell-based, human
[1] = system: APOE3 iMGLs; assay: Lipid droplet induction in APOE3 iMGLs, BODIPY/IBA1 staining; conditions: 20 μM, 16 hours
[2] = system: APOE3 iMGLs; assay: qPCR of OA-treated iMGLs; conditions: 20 μM, 16 hours
[3] = system: APOE3 iMGLs; assay: Calcium imaging upon ATP uncaging in OA-treated APOE3 iMGLs; conditions: 20 μM, 16 hours, vs untreated APOE3 iMGLs
[4] = system: APOE4 iMGLs; conditions: 1 μM, 16 hours, vs DMSO-treated control cells
[5] = system: APOE4 iMGLs; assay: Purinergic signaling in TrC-treated APOE4 iMGLs; conditions: 1 μM, 16 hours
[6] = system: NGN2-induced neurons; assay: MEA recording of NGN2-induced neurons exposed to iMGL conditioned media; conditions: 24 hours after exposure to conditioned media from APOE4 iMGL pre-treated with TrC
Procedure: Having induced lipid formation in APOE3 iMGLs, we next attempted to deplete APOE4 iMGLs of lipid droplets to test whether this would alleviate APOE4 phenotypes. We turned to the ACSL1 inhibitor Triacsin C (TrC). […] Since TrC has also been reported to inhibit cholesterol biosynthesis and increase microglial phagocytosis, we decided to test if the extracellular accumulation of cholesterol in APOE4 iMGLs could be reduced by TrC treatment. After 16 hours, DMSO-treated controls or TrC-treated APOE4 iMGLs were washed off the drug treatment and allowed to condition the media for an additional 24 hours. […] NGN2-induced neurons from APOE3 or APOE4 iPS lines were seeded onto MEAs and allowed to mature for 3 weeks before being recorded 24 hours after exposure to conditioned media from APOE3 iMGLs, APOE4 iMGLs, or APOE4 iMGL treated with TrC. […]
Dissociated spheroids or NGN2-induced neurons were plated as a 10 μl droplet in Poly-D-Lysine (Sigma-Aldrich) coated wells of a CytoView MEA 48-well plate (Axion BioSystems; M768-tMEA-48B). […] Spontaneous neural activity was recorded for 30 minutes at a sampling rate of 12.5 kHz and an adaptive threshold set at 5.5 times the standard deviation of baseline noise was used for spike detection. Bursts were detected at each electrode using an inter-spike interval (ISI) threshold set to at least 5 spikes with a maximum ISI of 100 ms. […]

[7] = system: APOE4 iMGLs; assay: Cholesterol in media of APOE4 iMGLs via ELISA; conditions: 16 hours treatment, drug washed off, media conditioned 24 hours; vs DMSO-treated controls
Procedure: Having induced lipid formation in APOE3 iMGLs, we next attempted to deplete APOE4 iMGLs of lipid droplets to test whether this would alleviate APOE4 phenotypes. We turned to the ACSL1 inhibitor Triacsin C (TrC). […] Since TrC has also been reported to inhibit cholesterol biosynthesis and increase microglial phagocytosis, we decided to test if the extracellular accumulation of cholesterol in APOE4 iMGLs could be reduced by TrC treatment. After 16 hours, DMSO-treated controls or TrC-treated APOE4 iMGLs were washed off the drug treatment and allowed to condition the media for an additional 24 hours. […] We reasoned that a decrease in extracellular cholesterol accumulation in APOE4 iMGLs cultures treated with TrC was likely to also relieve the suppression of neuronal activity under APOE4 iMGL conditioned media. NGN2-induced neurons from APOE3 or APOE4 iPS lines were seeded onto MEAs and allowed to mature for 3 weeks before being recorded 24 hours after exposure to conditioned media from APOE3 iMGLs, APOE4 iMGLs, or APOE4 iMGL treated with TrC. […]
[…] Measurements were made using an EnSpire plate reader (Perkin Elmer). APOE levels were similarly processed and quantified from iMGL conditioned media using Apolipoprotein E Human ELISA kit (Invitrogen; #EHAPOE).

## CCCCCCCC/C=C\CCCCCCCC(=O)O [OA, oleic acid]
[1]
  cell size of iMGLs: decrease in the cell size of iMGLs
[1]; IBA1-positive cells
  intracellular BODIPY-positive lipid droplets: accumulated intracellular BODIPY-positive lipid droplets
[2]
  CD74 expression by qPCR: upregulation of this gene
  expression of ACSL1: significantly induced the expression of ACSL1
[3]
  calcium transients evoked by ATP uncaging: sufficient to blunt calcium transients evoked by ATP uncaging relative to untreated APOE3 iMGLs

## CCC/C=C/C/C=C/C=C/C=N/NN=O [TrC, Triacsin C]
[4]
  BODIPY-positive lipid droplets: dramatically reduce BODIPY-positive lipid droplets relative to DMSO-treated control cells
[5]
  purinergic signaling: purinergic signaling was restored after lipid droplet depletion
[6]
  neuronal bursts / neural activity on MEA: increased neural activity to the level of neurons treated with APOE3 iMGL media
[7]
  levels of accumulated cholesterol in the media: significant decrease in the levels of accumulated cholesterol in the media
